Drawing on patent publication US20240132463A1, “SUBSTITUTED N-(2-(2,6-DIOXOPIPERIDIN-3-YL)-1,3-DIOXOISOINDOLIN-5-YL)ARYLSULFONAMIDE ANALOGS AS MODULATORS OF CEREBLON PROTEIN” (ST. JUDE CHILDREN'S RESEARCH HOSPITAL, INC., priority 2020, published 2024), this text covers IC50 for 36 compounds.

In the test the target is 6×His-CRBN-DDB1 protein (Homo sapiens (Human), UniProt Q96SW2). As to the kind of experiment: CRBN fluorescence polarization assay. As to conditions: cereblon binding, class symbols; read-out: CRBN FP IC50. In kind it is binding. Here is the method: 6×His-CRBN-DDB1 protein (200 nM) and Cy5-O-Len probe (30 nM) were combined in 20 mM HEPES pH 7, 150 mM NaCl, 0.005% Tween-20 assay buffer. […] The plates were incubated in the dark for 1 hour at room temperature and then read on an Envision plate reader (PerkinElmer, Massachusetts, USA).
On the technique in general: Polarisation of emitted light reports the rotation of a fluorescent probe.

Sequence of 6×His-CRBN-DDB1 protein (Q96SW2 whole entry): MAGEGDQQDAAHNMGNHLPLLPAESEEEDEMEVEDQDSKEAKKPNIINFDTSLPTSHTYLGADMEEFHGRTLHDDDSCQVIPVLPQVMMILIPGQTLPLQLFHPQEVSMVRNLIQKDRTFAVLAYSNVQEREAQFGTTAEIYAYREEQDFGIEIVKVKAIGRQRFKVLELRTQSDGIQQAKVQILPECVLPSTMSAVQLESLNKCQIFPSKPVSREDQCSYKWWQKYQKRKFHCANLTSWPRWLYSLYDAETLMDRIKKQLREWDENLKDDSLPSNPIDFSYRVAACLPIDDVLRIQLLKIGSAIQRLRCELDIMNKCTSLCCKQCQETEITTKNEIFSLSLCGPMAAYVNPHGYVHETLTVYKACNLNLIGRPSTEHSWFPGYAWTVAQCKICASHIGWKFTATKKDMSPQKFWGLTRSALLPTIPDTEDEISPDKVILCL
Sequence of 6×His-CRBN-DDB1 protein (Q16531 whole entry partner): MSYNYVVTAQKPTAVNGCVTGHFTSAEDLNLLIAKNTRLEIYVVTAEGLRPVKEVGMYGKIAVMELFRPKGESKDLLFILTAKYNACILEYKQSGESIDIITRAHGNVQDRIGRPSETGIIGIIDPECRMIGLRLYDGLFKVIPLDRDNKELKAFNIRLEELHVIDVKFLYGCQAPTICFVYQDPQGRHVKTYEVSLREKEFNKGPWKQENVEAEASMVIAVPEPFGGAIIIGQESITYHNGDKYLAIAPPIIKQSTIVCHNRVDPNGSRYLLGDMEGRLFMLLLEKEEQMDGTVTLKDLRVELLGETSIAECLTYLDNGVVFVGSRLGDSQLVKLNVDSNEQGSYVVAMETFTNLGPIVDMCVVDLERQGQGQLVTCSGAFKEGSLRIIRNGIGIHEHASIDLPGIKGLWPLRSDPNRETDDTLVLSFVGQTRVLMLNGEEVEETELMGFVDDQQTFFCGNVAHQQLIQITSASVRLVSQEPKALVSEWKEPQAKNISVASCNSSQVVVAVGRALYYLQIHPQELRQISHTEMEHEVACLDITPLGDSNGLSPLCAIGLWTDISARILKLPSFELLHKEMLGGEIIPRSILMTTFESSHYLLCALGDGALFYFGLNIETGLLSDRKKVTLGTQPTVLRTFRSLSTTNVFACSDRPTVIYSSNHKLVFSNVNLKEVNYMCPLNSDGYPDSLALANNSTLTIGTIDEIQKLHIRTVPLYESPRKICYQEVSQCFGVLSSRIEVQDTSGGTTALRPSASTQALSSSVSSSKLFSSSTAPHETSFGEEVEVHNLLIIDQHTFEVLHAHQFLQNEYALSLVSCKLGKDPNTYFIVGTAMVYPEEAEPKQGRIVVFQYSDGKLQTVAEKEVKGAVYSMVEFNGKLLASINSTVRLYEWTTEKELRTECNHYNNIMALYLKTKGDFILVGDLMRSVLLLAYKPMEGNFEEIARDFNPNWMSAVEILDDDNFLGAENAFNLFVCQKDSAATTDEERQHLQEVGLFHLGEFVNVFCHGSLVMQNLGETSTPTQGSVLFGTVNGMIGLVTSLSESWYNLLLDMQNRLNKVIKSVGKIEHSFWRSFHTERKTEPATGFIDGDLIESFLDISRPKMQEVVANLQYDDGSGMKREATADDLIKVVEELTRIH

The term IC50 denotes the concentration at which inhibition is half-maximal. Turning to `Cc1cccc(S(=O)(=O)Nc2ccc3c(c2)C(=O)N(C2CCC(=O)NC2=O)C3=O)c1` (stereo not drawn) [Compound 19, N-(2-(2,6-dioxopiperidin-3-yl)-1,3-dioxoisoindolin-5-yl)-3-methylbenzenesulfonamide], the IC50 was below 1000 nM.

Consider `O=C1CCC(N2C(=O)c3ccc(NS(=O)(=O)c4ccc(-c5ccccc5)cc4)cc3C2=O)C(=O)N1` (stereo not drawn) [Compound 62, N-(2-(2,6-dioxopiperidin-3-yl)-1,3-dioxoisoindolin-5-yl)(1,1′-biphenyl]-4-sulfonamide], for which the IC50 was below 1000 nM.

Take `COc1ccc(S(=O)(=O)Nc2ccc3c(c2)CN(C2CCC(=O)NC2=O)C3=O)cc1` (stereo not drawn) [Compound 40, N-(2-(2,6-dioxopiperidin-3-yl)-1-oxoisoindolin-5-yl)-4-methoxybenzenesulfonamide]: the IC50 is below 1000 nM.

Consider `O=C1CCC(N2Cc3cc(NS(=O)(=O)c4cccc(OC(F)(F)F)c4)ccc3C2=O)C(=O)N1` (stereo not drawn) [Compound 43, N-(2-(2,6-dioxopiperidin-3-yl)-1-oxoisoindolin-5-yl)-3-(trifluoromethoxy)benzenesulfonamide], for which the IC50 was below 1000 nM.

With `O=C1CCC(N2Cc3ccc(NS(=O)(=O)c4ccc(F)c(Cl)c4)cc3C2=O)C(=O)N1` (stereo not drawn) [Compound 31, 3-chloro-N-(2-(2,6-dioxopiperidin-3-yl)-3-oxoisoindolin-5-yl)-4-fluorobenzenesulfonamide], the IC50 is 1000 to 10000 nM.

`O=C1CCC(N2C(=O)c3ccc(NS(=O)(=O)c4ccc5ncsc5c4)cc3C2=O)C(=O)N1` (stereo not drawn) [Compound 86, N-(2-(2,6-dioxopiperidin-3-yl)-1,3-dioxoisoindolin-5-yl)benzo[d]thiazole-6-sulfonamide]: the IC50 is below 1000 nM.

Regarding `Cc1cc(S(=O)(=O)Nc2ccc3c(c2)C(=O)N(C2CCC(=O)NC2=O)C3=O)c(C)o1` (stereo not drawn) [Compound 84, N-(2-(2,6-dioxopiperidin-3-yl)-1,3-dioxoisoindolin-5-yl)-2,5-dimethylfuran-3-sulfonamide], the IC50 was below 1000 nM.

With `O=C1CCC(N2C(=O)c3ccc(NS(=O)(=O)c4cccc(Cl)c4Cl)cc3C2=O)C(=O)N1` (stereo not drawn) [Compound 88, 2,3-dichloro-N-(2-(2,6-dioxopiperidin-3-yl)-1,3-dioxoisoindolin-5-yl)benzenesulfonamide], the IC50 was below 1000 nM.

Take `CC(C)(C)c1ccc(S(=O)(=O)Nc2ccc3c(c2)C(=O)N(C2CCC(=O)NC2=O)C3=O)cc1` (stereo not drawn) [Compound 3, 4-(tert-butyl)-N-(2-(2,6-dioxopiperidin-3-yl)-1,3-dioxoisoindolin-5-yl)benzenesulfonamide]: the IC50 is below 1000 nM.

As for `CC(C)c1ccc(S(=O)(=O)Nc2ccc3c(c2)C(=O)N(C2CCC(=O)NC2=O)C3)cc1` (stereo not drawn) [Compound 30, N-(2-(2,6-dioxopiperidin-3-yl)-3-oxoisoindolin-5-yl)-4-isopropylbenzenesulfonamide], the IC50 is below 1000 nM.

For `Cc1c(Cl)cccc1S(=O)(=O)Nc1ccc2c(c1)C(=O)N(C1CCC(=O)NC1=O)C2` (stereo not drawn) [Compound 36, 3-chloro-N-(2-(2,6-dioxopiperidin-3-yl)-3-oxoisoindolin-5-yl)-2-methylbenzenesulfonamide], the IC50 is below 1000 nM.

`O=C1CCC(N2C(=O)c3ccc(NS(=O)(=O)c4cccnc4)cc3C2=O)C(=O)N1` (stereo not drawn) [Compound 85, N-(2-(2,6-dioxopiperidin-3-yl)-1,3-dioxoisoindolin-5-yl)pyridine-3-sulfonamide]: the IC50 lay within 1000 to 10000 nM.

Consider `CC(C)(C)c1ccc(S(=O)(=O)Nc2ccc3c(c2)CN(C2CCC(=O)NC2=O)C3=O)cc1` (stereo not drawn) [Compound 46, 4-(tert-butyl)-N-(2-(2,6-dioxopiperidin-3-yl)-1-oxoisoindolin-5-yl)benzenesulfonamide], for which the IC50 was below 1000 nM.

Consider `Cc1ccc(F)c(S(=O)(=O)Nc2ccc3c(c2)C(=O)N(C2CCC(=O)NC2=O)C3)c1` (stereo not drawn) [Compound 34, N-(2-(2,6-dioxopiperidin-3-yl)-3-oxoisoindolin-5-yl)-2-fluoro-5-methylbenzenesulfonamide], for which the IC50 was below 1000 nM.

Consider `O=C1CCC(N2Cc3cc(NS(=O)(=O)c4ccccc4)ccc3C2=O)C(=O)N1` (stereo not drawn) [Compound 38, N-(2-(2,6-dioxopiperidin-3-yl)-1-oxoisoindolin-5-yl)benzenesulfonamide], for which the IC50 lay in the range of 1000 to 10000 nM.

Take `COc1cccc(S(=O)(=O)Nc2ccc3c(c2)CN(C2CCC(=O)NC2=O)C3=O)c1` (stereo not drawn) [Compound 47, N-(2-(2,6-dioxopiperidin-3-yl)-1-oxoisoindolin-5-yl)-3-methoxybenzenesulfonamide]: the IC50 is below 1000 nM.

For the compound `Cc1ccc(S(=O)(=O)Nc2ccc3c(c2)C(=O)N(C2CCC(=O)NC2=O)C3)cc1Cl` (stereo not drawn) [Compound 33, 3-chloro-N-(2-(2,6-dioxopiperidin-3-yl)-3-oxoisoindolin-5-yl)-4-methylbenzenesulfonamide], the IC50 was below 1000 nM.

Take `Cc1ccccc1S(=O)(=O)Nc1ccc2c(c1)C(=O)N(C1CCC(=O)NC1=O)C2` (stereo not drawn) [Compound 35, N-(2-(2,6-dioxopiperidin-3-yl)-3-oxoisoindolin-5-yl)-2-methylbenzenesulfonamide]: the IC50 is below 1000 nM.

On to `O=C1CCC(N2C(=O)c3ccc(NS(=O)(=O)Cc4ccc(Cl)cc4)cc3C2=O)C(=O)N1` (stereo not drawn) [Compound 57, 1-(4-chlorophenyl)-N-(2-(2,6-dioxopiperidin-3-yl)-1,3-dioxoisoindolin-5-yi)methanesulfonamide], for which the IC50 was below 1000 nM.

Regarding `Cc1ccc(S(=O)(=O)Nc2ccc3c(c2)C(=O)N(C2CCC(=O)NC2=O)C3)cc1` (stereo not drawn) [Compound 25, N-(2-(2,6-dioxopiperidin-3-yl)-3-oxoisoindolin-5-yl)-4-methylbenzenesulfonamide], the IC50 is below 1000 nM.

As for `O=C1CCC(N2Cc3cc(NS(=O)(=O)c4ccccc4OC(F)(F)F)ccc3C2=O)C(=O)N1` (stereo not drawn) [Compound 56, N-(2-(2,6-dioxopiperidin-3-yl)-1-oxoisoindolin-5-yl)-2-(trifluoromethoxy)benzenesulfonamide], the IC50 is below 1000 nM.

`O=C1CCC(N2Cc3cc(NS(=O)(=O)c4ccc(-c5ccccc5)cc4)ccc3C2=O)C(=O)N1` (stereo not drawn) [Compound 51, N-(2-(2,6-dioxopiperidin-3-yl)-1-oxoisoindolin-5-yl)-[1,1′-bipheny]-4-sulfonamide]: the IC50 is below 1000 nM.

With `O=C1CCC(N2Cc3ccc(NS(=O)(=O)c4ccccc4)cc3C2=O)C(=O)N1` (stereo not drawn) [Compound 22, N-(2-(2,6-dioxopiperidin-3-yl)-3-oxoisoindolin-5-yl)benzenesulfonamide], the IC50 is below 1000 nM.

For `O=C1CCC(N2Cc3ccc(NS(=O)(=O)c4ccc(F)cc4)cc3C2=O)C(=O)N1` (stereo not drawn) [Compound 23, N-(2-(2,6-dioxopiperidin-3-yl)-3-oxoisoindolin-5-yl)-4-fluorobenzenesulfonamide], the IC50 is below 1000 nM.

As for `O=C1CCC(N2C(=O)c3ccc(NS(=O)(=O)c4ccc(C5CCCCC5)cc4)cc3C2=O)C(=O)N1` (stereo not drawn) [Compound 80, 4-cyclohexyl-N-(2-(2,6-dioxopiperidin-3-yl)-1,3-dioxoisoindolin-5-yl)benzenesulfonamide], the IC50 is 1000 to 10000 nM.

For the compound `O=C1CCC(N2Cc3ccc(NS(=O)(=O)c4cccc(C(F)(F)F)c4)cc3C2=O)C(=O)N1` (stereo not drawn) [Compound 32, N-(2-(2,6-dioxopiperidin-3-yl)-3-oxoisoindolin-5-yl)-3-(trifluoromethyl)benzenesulfonamide], the IC50 was below 1000 nM.

With `O=C1CCC(N2Cc3cc(NS(=O)(=O)c4ccc(F)c(Cl)c4)ccc3C2=O)C(=O)N1` (stereo not drawn) [Compound 49, 3-chloro-N-(2-(2,6-dioxopiperidin-3-yl)-1-oxoisoindolin-5-yl)-4-fluorobenzenesulfonamide], the IC50 is below 1000 nM.

In the case of `Cc1ccccc1S(=O)(=O)Nc1ccc2c(c1)CN(C1CCC(=O)NC1=O)C2=O` (stereo not drawn) [Compound 54, N-(2-(2,6-dioxopiperidin-3-yl)-1-oxoisoindolin-5-yl)-2-methylbenzenesulfonamide], the IC50 is below 1000 nM.

Turning to `CC(=O)Nc1ccc(S(=O)(=O)Nc2ccc3c(c2)C(=O)N(C2CCC(=O)NC2=O)C3=O)cc1` (stereo not drawn) [Compound 13, N-(4-(N-(2-(2,6-dioxopiperidin-3-yl)-1,3-dioxoisoindolin-5-yl)sulfamoyl)phenyl)acetamide], the IC50 was below 1000 nM.

Regarding `O=C1CCC(N2Cc3ccc(NS(=O)(=O)c4ccccc4C(F)(F)F)cc3C2=O)C(=O)N1` (stereo not drawn) [Compound 28, N-(2-(2,6-dioxopiperidin-3-yl)-3-oxoisoindolin-5-yl)-2-(trifluoromethyl)benzenesulfonamide], the IC50 was below 1000 nM.

`O=C1CCC(N2C(=O)c3ccc(NS(=O)(=O)c4ccccc4Br)cc3C2=O)C(=O)N1` (stereo not drawn) [Compound 65, 2-bromo-N-(2-(2,6-dioxopiperidin-3-yl)-1,3-dioxoisoindolin-5-yl)benzenesulfonamide]: the IC50 was below 1000 nM.

With `O=C1CCC(N2C(=O)c3ccc(NS(=O)(=O)c4ccco4)cc3C2=O)C(=O)N1` (stereo not drawn) [Compound 91, N-(2-(2,6-dioxopiperidin-3-yl)-1,3-dioxoisoindolin-5-yl)furan-2-sulfonamide], the IC50 was below 1000 nM.

For the compound `O=C1CCC(N2Cc3cc(NS(=O)(=O)c4cccc(C(F)(F)F)c4)ccc3C2=O)C(=O)N1` (stereo not drawn) [Compound 50, N-(2-(2,6-dioxopiperidin-3-yl)-1-oxoisoindolin-5-yl)-3-(trifluoromethyl)benzenesulfonamide], the IC50 is below 1000 nM.

As for `Cc1ccc(S(=O)(=O)Nc2ccc3c(c2)CN(C2CCC(=O)NC2=O)C3=O)cc1Cl` (stereo not drawn) [Compound 52, 3-chloro-N-(2-(2,6-dioxopiperidin-3-yl)-1-oxoisoindolin-5-yl)-4-methylbenzenesulfonamide], the IC50 was below 1000 nM.

Turning to `Cc1ccc(F)c(S(=O)(=O)Nc2ccc3c(c2)CN(C2CCC(=O)NC2=O)C3=O)c1` (stereo not drawn) [Compound 53], the IC50 is below 1000 nM.

In the case of `O=C1CCC(N2C(=O)c3ccc(NS(=O)(=O)c4ccc(F)c(F)c4)cc3C2=O)C(=O)N1` (stereo not drawn) [Compound 11, N-(2-(2,6-dioxopiperidin-3-yl)-1,3-dioxoisoindolin-5-yl)-3,4-difluorobenzenesulfonamide], the IC50 was below 1000 nM.
